Marks after values point to notes of the source that are not given here. Where a SMILES comes first, the peptide text is derived from it. Where no end group is shown, it is not given here.
The molecules below were run against T1, ACE (Homo sapiens, UniProt P12821) (assay: ACE inhibition rate / IC50 determination with FAPGG substrate (absorbance 340 nm)). Settings: ACE inhibition rate relative to captopril.
T1 construct: purchased Shanghai Yuanye Biotechnology Co., Ltd
Format: biochemical
Method: The ACE inhibition rate was determined according to the method developed by Wang. In brief, 1 mmol/L FAPGG solution, 0.1 U/mL ACE solution, and F. velutipes protein solution were mixed in 80 mmol/L HEPES buffer (pH 8.2), and the mixture was added to 96-well plates according to Table 1. The absorbance value at the wavelength of 340 nm at 37 °C and the absorbance value after 30 min of reaction were measured. The calculation formula is as follows: (2) Inhibition Rate of ACE%=(1−ΔA/ΔB)×100
In the formula, ΔA = A1 − A2; ΔB = B1 − B2. ΔA was the absorbance value of the sample pore solution; ΔB was the absorbance value of the control pore solution. A1 and B1 were the absorbance values measured at the wavelength of 340 nm. A2 and B2 were the absorbance values measured at the wavelength of 340 nm after reacting for 30 min at 37 °C.
Wuhan Dangang Biotechnology Co., Ltd. (Wuhan, China) was commissioned to synthesize the peptides. […] With captopril as the positive control, the ACE inhibition rate and IC50 of the above synthetic peptides were determined according to the method of Section 2.5.

T1 sequence (P12821 30-1306, species assumed): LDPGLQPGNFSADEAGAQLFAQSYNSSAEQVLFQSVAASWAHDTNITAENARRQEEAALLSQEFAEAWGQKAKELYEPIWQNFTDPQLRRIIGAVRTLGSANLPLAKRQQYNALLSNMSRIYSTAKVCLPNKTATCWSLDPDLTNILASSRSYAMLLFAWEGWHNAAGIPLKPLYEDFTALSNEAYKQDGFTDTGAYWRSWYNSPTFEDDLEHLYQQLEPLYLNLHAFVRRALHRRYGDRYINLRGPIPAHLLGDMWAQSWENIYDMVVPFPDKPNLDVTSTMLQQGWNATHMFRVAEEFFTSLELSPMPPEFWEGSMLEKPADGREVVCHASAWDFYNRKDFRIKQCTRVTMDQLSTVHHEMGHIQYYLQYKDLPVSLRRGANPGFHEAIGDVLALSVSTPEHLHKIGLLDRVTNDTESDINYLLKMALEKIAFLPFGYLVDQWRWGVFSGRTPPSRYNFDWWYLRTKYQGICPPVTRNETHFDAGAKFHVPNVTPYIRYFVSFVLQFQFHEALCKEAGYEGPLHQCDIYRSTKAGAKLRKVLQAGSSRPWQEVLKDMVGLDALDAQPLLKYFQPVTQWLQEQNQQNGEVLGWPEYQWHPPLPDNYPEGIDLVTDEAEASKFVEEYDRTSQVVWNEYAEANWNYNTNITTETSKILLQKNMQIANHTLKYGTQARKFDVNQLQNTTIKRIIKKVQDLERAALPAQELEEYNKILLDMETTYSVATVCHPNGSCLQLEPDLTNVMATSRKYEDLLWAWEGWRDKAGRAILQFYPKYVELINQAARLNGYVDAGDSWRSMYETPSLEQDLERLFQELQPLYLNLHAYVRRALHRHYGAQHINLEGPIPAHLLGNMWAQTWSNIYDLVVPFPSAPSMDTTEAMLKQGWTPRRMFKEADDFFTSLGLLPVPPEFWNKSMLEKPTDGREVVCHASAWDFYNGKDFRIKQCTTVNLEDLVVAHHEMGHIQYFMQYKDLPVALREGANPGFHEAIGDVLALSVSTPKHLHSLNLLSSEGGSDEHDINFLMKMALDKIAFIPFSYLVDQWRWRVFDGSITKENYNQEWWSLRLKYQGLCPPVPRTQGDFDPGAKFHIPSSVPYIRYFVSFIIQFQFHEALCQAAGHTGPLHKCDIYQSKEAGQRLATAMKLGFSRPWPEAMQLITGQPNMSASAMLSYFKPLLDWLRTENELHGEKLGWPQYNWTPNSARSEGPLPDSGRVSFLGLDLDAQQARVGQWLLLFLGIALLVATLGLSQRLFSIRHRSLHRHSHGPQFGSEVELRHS

Row | Molecule | Inhibitory effect as % of the positive control [%]
1 | N[C@@H](Cc1ccccc1)C(=O)N[C@@H](CC(=O)O)C(=O)NCC(=O)N[C@@H](Cc1ccc(O)cc1)C(=O)O [FDGY] (H-FDGY-OH; N-terminus and C-terminus assumed) | 81.53
2 | C[C@H](NC(=O)[C@@H](N)Cc1c[nH]c2ccccc12)C(=O)N[C@@H](CC(=O)O)C(=O)N1CCC[C@H]1C(=O)O [WADP] (H-WADP-OH; N-terminus and C-terminus assumed) | 84.13
3 | FAGGP [FAGGP] | 87.04
4 | FHPGY [FHPGY] | 92.60

Same assay, conditions: synthesized peptides, captopril as positive control

Row | Molecule | IC50 [µM]
5 | N[C@@H](Cc1ccccc1)C(=O)N[C@@H](CC(=O)O)C(=O)NCC(=O)N[C@@H](Cc1ccc(O)cc1)C(=O)O [FDGY] (H-FDGY-OH; N-terminus and C-terminus assumed) | 91.5 ± 1.09
6 | C[C@H](NC(=O)[C@@H](N)Cc1c[nH]c2ccccc12)C(=O)N[C@@H](CC(=O)O)C(=O)N1CCC[C@H]1C(=O)O [WADP] (H-WADP-OH; N-terminus and C-terminus assumed) | 41.3 ± 0.7
7 | FAGGP [FAGGP] | 29.2 ± 1.37
8 | FHPGY [FHPGY] | 14.8 ± 0.34

Same assay, conditions: synthesized peptides, captopril as positive control; test concentration not given

Row | Molecule | Inhibition Rate of ACE
9 | N[C@@H](Cc1ccccc1)C(=O)N[C@@H](CC(=O)O)C(=O)NCC(=O)N[C@@H](Cc1ccc(O)cc1)C(=O)O [FDGY] (H-FDGY-OH; N-terminus and C-terminus assumed) | 80.48 ± 0.84 ^e %
10 | C[C@H](NC(=O)[C@@H](N)Cc1c[nH]c2ccccc12)C(=O)N[C@@H](CC(=O)O)C(=O)N1CCC[C@H]1C(=O)O [WADP] (H-WADP-OH; N-terminus and C-terminus assumed) | 83.04 ± 0.68 ^d %
11 | FAGGP [FAGGP] | 85.92 ± 1.81 ^c %
12 | FHPGY [FHPGY] | 91.41 ± 1.01 ^b %

Source: article PMC12346769, “Activity Analysis and Inhibition Mechanism of Four Novel Angiotensin I-Converting Enzyme Inhibitory Peptides Prepared from Flammulina velutipes by Enzymatic Hydrolysis” (Foods, 2025)
